From patent US20110015080A1, “Solution-based methods for RNA expression profiling” (MASSACHUSETTS INSTITUTE OF TECHNOLOGY, priority 2005, published 2011)
Several values for one entry are separate records, joined by “and”; a condition that tells them apart may be missing. Equal values may be shown once.

Test system: HL60 (human promyelocytic leukemia) cells
Assay: LMA-FlexMAP bead-based gene expression signature analysis of total RNA from HL60 cells treated with tretinoin or DMSO (ninety transcripts); for NM 000884 LUA#81 FlexMAP signal: test concentration or dose not given here; for NM 001469 LUA#79 FlexMAP signal: test concentration or dose not given here

## CC1=C(/C=C/C(C)=C/C=C/C(C)=C/C(=O)O)C(C)(C)CCC1 [tretinoin, all-trans-retinoic acid]
Experiment 1, tretinoin-treated HL60, transcript ACTB, replicate columns
  ACTB LUA#91 FlexMAP signal: 2313 and 2609 and 1929 and 2483 and 818 and 2425.5 and 2563 and 1173 and 2347 and 2296.5
Experiment 1, tretinoin-treated HL60, transcript GAPDH_3, replicate columns
  GAPDH_3 LUA#95 FlexMAP signal: 2580 and 2982 and 2428 and 2979 and 1102.5 and 2911 and 2912 and 1645 and 2823 and 2559
Experiment 1, tretinoin-treated HL60, transcript GAPDH_5, replicate columns
  GAPDH_5 LUA#93 FlexMAP signal: 1299 and 1629 and 998.5 and 1419 and 378.5 and 1433 and 1505.5 and 632 and 1469 and 1347
Experiment 1, tretinoin-treated HL60, transcript GAPDH_M, replicate columns
  GAPDH_M LUA#94 FlexMAP signal: 1360.5 and 1575 and 1134 and 1511.5 and 460 and 1520 and 1502 and 698.5 and 1462 and 1334
Experiment 1, tretinoin-treated HL60, transcript NM_000147, replicate columns
  NM_000147 LUA#29 FlexMAP signal: 764 and 894 and 573 and 861 and 195.5 and 822.5 and 850 and 302 and 783 and 763
Experiment 1, tretinoin-treated HL60, transcript NM_000211, replicate columns
  NM_000211 LUA#39 FlexMAP signal: 1294.5 and 1488 and 1125 and 1420 and 454.5 and 1349 and 1366.5 and 682 and 1361 and 1315
Experiment 1, tretinoin-treated HL60, transcript NM_000250, replicate columns
  NM_000250 LUA#87 FlexMAP signal: 164 and 198 and 194 and 74 and 177 and 187 and 95.5 and 173 and 166
Experiment 1, tretinoin-treated HL60, transcript NM_000414, replicate columns
  NM_000414 LUA#22 FlexMAP signal: 372.5 and 470.5 and 270 and 442 and 100 and 408.5 and 415 and 145 and 402.5 and 373
Experiment 1, tretinoin-treated HL60, transcript NM_000433, replicate columns
  NM_000433 LUA#28 FlexMAP signal: 536.5 and 647 and 442.5 and 640 and 144 and 605 and 622 and 228.5 and 564 and 532
Experiment 1, tretinoin-treated HL60, transcript NM_000584, replicate columns
  NM_000584 LUA#30 FlexMAP signal: 1765 and 2115 and 1464 and 1938.5 and 476 and 1981.5 and 1945 and 799.5 and 1938 and 1717
Experiment 1, tretinoin-treated HL60, transcript NM_000884, replicate columns
  NM_000884 LUA#81 FlexMAP signal: 799 (2×) and 946 and 676 and 871.5 and 250 and 871 and 865 and 389 and 830.5
Experiment 1, tretinoin-treated HL60, transcript NM_001034, replicate columns
  NM_001034 LUA#67 FlexMAP signal: 191 and 243 and 157 and 225 and 73 and 209 and 212.5 and 92 and 219 and 185
Experiment 1, tretinoin-treated HL60, transcript NM_001101, replicate columns
  NM_001101 LUA#34 FlexMAP signal: 2722 and 3119.5 and 2773 and 2969.5 and 1490 and 2968.5 and 2890 and 1977 and 2893.5 and 2694
Experiment 1, tretinoin-treated HL60, transcript NM_001469, replicate columns
  NM_001469 LUA#79 FlexMAP signal: 1076 and 1221 and 809 and 1179 (2×) and 284 and 1191 and 463 and 1140.5 and 1077
Experiment 1, tretinoin-treated HL60, transcript NM_001498, replicate columns
  NM_001498 LUA#18 FlexMAP signal: 361 and 424 and 279 and 402 and 96 and 374 and 412 and 140 and 360 and 335.5
Experiment 1, tretinoin-treated HL60, transcript NM_001684, replicate columns
  NM_001684 LUA#23 FlexMAP signal: 69 and 68 and 54 and 66.5 and 41 and 65 (2×) and 43 and 61 and 63
Experiment 1, tretinoin-treated HL60, transcript NM_001948, replicate columns
  NM_001948 LUA#84 FlexMAP signal: 58 and 75 and 61 and 73 and 47 and 63 and 71 and 51 and 76 and 66
Experiment 1, tretinoin-treated HL60, transcript NM_002166, replicate columns
  NM_002166 LUA#25 FlexMAP signal: 154 and 180 and 124.5 and 159.5 and 61 and 168 and 159 and 79.5 and 156.5 and 152
Experiment 1, tretinoin-treated HL60, transcript NM_002467, replicate columns
  NM_002467 LUA#90 FlexMAP signal: 1030 and 801 and 702 and 736 and 256 and 792.5 and 842.5 and 399 and 957 and 976
Experiment 1, tretinoin-treated HL60, transcript NM_002468, replicate columns
  NM_002468 LUA#40 FlexMAP signal: 418 and 492 and 325 and 448.5 and 121 and 496.5 and 473 and 174.5 and 426.5 and 399.5
Experiment 1, tretinoin-treated HL60, transcript NM_002539, replicate columns
  NM_002539 LUA#74 FlexMAP signal: 276 and 362 and 231 and 326 and 85 and 313 and 314.5 and 131 and 300 and 281.5
Experiment 1, tretinoin-treated HL60, transcript NM_002624, replicate columns
  NM_002624 LUA#36 FlexMAP signal: 1288 and 1492.5 and 1267 and 1418 and 576 and 1447 and 1402 and 820 and 1224.5
Experiment 1, tretinoin-treated HL60, transcript NM_002664, replicate columns
  NM_002664 LUA#38 FlexMAP signal: 2325 and 2761 and 2157 and 2552 and 892 and 2527 and 2504 and 1337 and 2394 and 2330
Experiment 1, tretinoin-treated HL60, transcript NM_002970, replicate columns
  NM_002970 LUA#42 FlexMAP signal: 1455 and 1683.5 and 1181 and 1595 and 400 and 1478 and 1584 and 651 and 1503 and 1459
Experiment 1, tretinoin-treated HL60, transcript NM_002982, replicate columns
  NM_002982 LUA#45 FlexMAP signal: 3488 and 3786 and 3231 and 3797 and 1738 and 3852 and 3752 and 2466 and 3667 and 3451
Experiment 1, tretinoin-treated HL60, transcript NM_003132, replicate columns
  NM_003132 LUA#68 FlexMAP signal: 488 (2×) and 596 and 410 and 540 and 148 and 523 and 517 and 212 and 467.5
Experiment 1, tretinoin-treated HL60, transcript NM_003172, replicate columns
  NM_003172 LUA#19 FlexMAP signal: 243 and 276 and 208 and 286 and 86 and 264 and 257 and 121 and 260 and 235
Experiment 1, tretinoin-treated HL60, transcript NM_003332, replicate columns
  NM_003332 LUA#43 FlexMAP signal: 2387.5 and 2641 and 2219 and 2571.5 and 1100 and 2688.5 and 2573.5 and 1470 and 2528 and 2325
Experiment 1, tretinoin-treated HL60, transcript NM_003581, replicate columns
  NM_003581 LUA#62 FlexMAP signal: 53 and 57 and 147 and 80 and 50 (2×) and 65 and 52 and 43 and 42
Experiment 1, tretinoin-treated HL60, transcript NM_003644, replicate columns
  NM_003644 LUA#17 FlexMAP signal: 282 and 272 and 195.5 and 252 and 105 and 266.5 and 259 and 142 and 271.5 and 260
Experiment 1, tretinoin-treated HL60, transcript NM_003752, replicate columns
  NM_003752 LUA#82 FlexMAP signal: 130.5 and 145.5 and 114 and 144.5 and 71 and 128.5 and 142 and 94 and 137.5 and 124.5
Experiment 1, tretinoin-treated HL60, transcript NM_003879, replicate columns
  NM_003879 LUA#24 FlexMAP signal: 72.5 and 77.5 and 57 and 80 (2×) and 41 and 71 and 76 and 53 and 67
Experiment 1, tretinoin-treated HL60, transcript NM_004079, replicate columns
  NM_004079 LUA#21 FlexMAP signal: 113 and 129 and 93 and 124.5 and 55 and 127 and 122 and 70 and 125.5 and 99.5
Experiment 1, tretinoin-treated HL60, transcript NM_004095, replicate columns
  NM_004095 LUA#59 FlexMAP signal: 203 and 247 and 148 and 227 and 78 and 212 (2×) and 101 and 214.5 and 194.5
Experiment 1, tretinoin-treated HL60, transcript NM_004106, replicate columns
  NM_004106 LUA#44 FlexMAP signal: 1187 and 1452 and 994 and 1303 and 373 and 1308 and 1315 and 576.5 and 1274.5 and 1218
Experiment 1, tretinoin-treated HL60, transcript NM_004134, replicate columns
  NM_004134 LUA#76 FlexMAP signal: 278 and 318 and 207 and 277 and 83.5 and 292 and 306 and 111 and 280 and 266.5
Experiment 1, tretinoin-treated HL60, transcript NM_004152, replicate columns
  NM_004152 LUA#31 FlexMAP signal: 1944 and 2194 and 1662 and 2073 and 775 and 2127.5 and 2117 and 1110 and 2045 and 1823
Experiment 1, tretinoin-treated HL60, transcript NM_004526, replicate columns
  NM_004526 LUA#88 FlexMAP signal: 192 and 223 and 150 and 213 and 77 and 208 and 192.5 and 101 and 206.5 and 182.5
Experiment 1, tretinoin-treated HL60, transcript NM_004602, replicate columns
  NM_004602 LUA#32 FlexMAP signal: 215.5 and 258 and 182 and 239 and 88 and 232.5 and 227.5 and 113.5 and 224 and 212
Experiment 1, tretinoin-treated HL60, transcript NM_004723, replicate columns
  NM_004723 LUA#20 FlexMAP signal: 380 and 446 and 318 and 394 and 127 and 418.5 and 388.5 and 184 and 400 and 363.5
Experiment 1, tretinoin-treated HL60, transcript NM_004741, replicate columns
  NM_004741 LUA#89 FlexMAP signal: 205 and 208 and 168 and 215 and 100 and 204 and 198 and 116 and 214 and 204.5
Experiment 1, tretinoin-treated HL60, transcript NM_004759, replicate columns
  NM_004759 LUA#37 FlexMAP signal: 116 and 149.5 and 148 and 139.5 and 53 and 128 and 141 and 67 and 134 and 103
Experiment 1, tretinoin-treated HL60, transcript NM_005008, replicate columns
  NM_005008 LUA#77 FlexMAP signal: 343 and 416 and 307 and 392 and 123 and 401 and 382.5 and 167 and 372 and 338.5
Experiment 1, tretinoin-treated HL60, transcript NM_005375, replicate columns
  NM_005375 LUA#86 FlexMAP signal: 780.5 and 638 and 523 and 594.5 and 238 and 631.5 and 617 and 351 and 734 and 717
Experiment 1, tretinoin-treated HL60, transcript NM_005566, replicate columns
  NM_005566 LUA#85 FlexMAP signal: 540 and 632.5 and 583.5 and 642 and 150 and 607 and 596 and 219 and 577 and 523.5
Experiment 1, tretinoin-treated HL60, transcript NM_005914, replicate columns
  NM_005914 LUA#60 FlexMAP signal: 881.5 and 948 and 566.5 and 843 and 209 and 866 and 848.5 and 351 and 885 and 795
Experiment 1, tretinoin-treated HL60, transcript NM_005915, replicate columns
  NM_005915 LUA#72 FlexMAP signal: 44 (2×) and 59 and 39 and 54 and 34.5 and 56 and 41 and 51 and 47
